Read-outs that look alike come from different tables or passages of the source.
Tests used:
in vitro [1] = conditions: mouse, brain homogenate
TRIM24-MET-i PDOX = conditions: vs vehicle
Protocol: All treatments started 18 days after transplantation. Radiotherapy was administered at 0.5 Gy per day, delivering 10 Gy total.
Each line represents one mouse. The ends of lines indicate the onset of neurological symptoms and thereby the endpoints. Treatment started on day 13.

in vitro [2] = conditions: mouse, plasma
[3] = In vitro protein binding assay, culture media; format: in vitro ADME; conditions: read-out: unbound drug fraction, Culture Media, AVG
TRIM24-MET-i cells = assay: 3-day dose-response assay, TRIM24-MET-i cells; format: cell-based; conditions: Homo sapiens
TRIM24-MET-r cells = assay: 3-day dose-response assay, TRIM24-MET-r cells; format: cell-based; conditions: Homo sapiens

COc1cc2nccc(Oc3ccc(NC(=O)C4(C(=O)Nc5ccc(F)cc5)CC4)cc3)c2cc1OC [Cabozantinib]
fraction unbound (in vitro [1]): 0.0025
increase of median survival (TRIM24-MET-i PDOX): 15.5 days
fraction unbound (in vitro [2]): 0.0017
fraction unbound [3]: 0.033
EC50 (TRIM24-MET-i cells; 72 h, read-out: EC50 Total): 30.3 nM
EC90 (TRIM24-MET-i cells; 72 h, read-out: EC90 Total): 556 nM
EC50 (TRIM24-MET-i cells; read-out: EC50 Unbound): 1 nM
EC90 (TRIM24-MET-i cells; read-out: EC90 Unbound): 18.3 nM
EC50 (TRIM24-MET-r cells; 72 h, read-out: EC50 Total): 369 nM
EC90 (TRIM24-MET-r cells; 72 h, read-out: EC90 Total): 44900 nM
EC50 (TRIM24-MET-r cells; read-out: EC50 Unbound): 12.2 nM
EC90 (TRIM24-MET-r cells; read-out: EC90 Unbound): 1480 nM

From PMC11157767 (Molecular Cancer, 2024)
